{"source": "patent US20230011869A1", "about": "(Hoffmann-La Roche Inc., priority 2018, published 2023)", "note": "Where a name gives a salt, the structure may show the parent alone.", "data": [{"test_system": "Acinetobacter baumannii ATCC17978", "test": "Antimicrobial susceptibility testing: 90% growth inhibitory concentration (IC90) determination, Iso-Sensitest broth", "assay_type": "cell-based", "details": "90% growth inhibitory concentration, Acinetobacter baumannii ATCC17978, Iso-Sensitest broth, OD 600 nm over 16 h; read-out: ATCC17978 IC90", "in_short": "(§1)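 A. baumannii ATCC17978 grown in Iso-Sensitest broth across 10 compound concentrations at 35±2 °C.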", "units": {"IC90": "nM"}, "values": [{"molecule": "Cc1cc(Nc2nccn3c(-c4ccc(O[C@@H](C)C#N)c(F)c4F)cnc23)ccc1C(=O)N1CCN(C(=O)[C@@H]2C[C@](C)(O)CN2)CC1", "note": "[Example 459, (2S)-2-[2,3-difluoro-4-[8-[4-[4-[(2S,4S)-4-hydroxy-4-methylpyrrolidine-2-carbonyl]piperazine-1-carbonyl]-3-methylanilino]imidazo[1,2-a]pyrazin-3-yl]phenoxy]propanenitrile; for-mic acid]", "IC90": 82}, {"molecule": "Cc1cc(Nc2nccn3c(-c4ccc(O[C@@H](C)C#N)c(F)c4F)cnc23)ccc1C(=O)N1CCN(C(=O)C2(O)CCNCC2)CC1", "note": "[Example 467, (2S)-2-[2,3-difluoro-4-[8-[4-[4-(4-hydroxypiperidine-4-carbonyl)piperazine-1-carbonyl]-3-methylanilino]imidazo[1,2-a]pyrazin-3-yl]phenoxy]propanenitrile; for-mic acid]", "IC90": 180}, {"molecule": "Cc1cc(Nc2nccn3c(-c4ccc(O[C@@H](C)C#N)c(F)c4F)cnc23)ccc1C(=O)N1CCN(C(=O)[C@@H]2C[C@@H](O)CN2)CC1", "note": "[Example 468, (2S)-2-[2,3-difluoro-4-[8-[4-[4-[(2S,4R)-4-hydroxypyrrolidine-2-carbonyl]piperazine-1-carbonyl]-3-methylanilino]imidazo[1,2-a]pyrazin-3-yl]phenoxy]propanenitrile; for-mic acid]", "IC90": 200}, {"molecule": "Cc1cc(Nc2nccn3c(-c4ccc(OCC#N)c(F)c4Cl)cnc23)ccc1C(=O)N1CCC(C(=O)OC[C@H]2CNCCN2)CC1", "note": "[Example 469, [(2R)-piperazin-2-yl]methyl 1-[4-[[3-[2-chloro-4-(cyanomethoxy)-3-fluorophenyl]imidazo[1,2-a]pyrazin-8-yl]amino]-2-methylbenzoyl]piperidine-4-carboxylate]", "IC90": 88}, {"molecule": "COc1ccc(-c2cnc3c(Nc4ccc(C(=O)N5CCN(C(=O)[C@@H]6C[C@@H](O)CN6)CC5)c(C)c4)nccn23)c(F)c1F", "note": "[Example 471, [4-[[3-(2,3-difluoro-4-methoxyphenyl)imidazo[1,2-a]pyrazin-8-yl]amino]-2-methylphenyl]-[4-[(2S,4R)-4-hydroxypyrrolidine-2-carbonyl]piperazin-1-yl]methanone]", "IC90": 96}, {"molecule": "Cc1cc(Nc2nccn3c(-c4ccc(OCC#N)c(F)c4F)cnc23)ccc1C(=O)N1CCN(C(=O)C2(F)CCNCC2)CC1", "note": "[Example 481, 2-[2,3-difluoro-4-[8-[4-[4-(4-fluoropiperidine-4-carbonyl)piperazine-1-carbonyl]-3-methylanilino]imidazo[1,2-a]pyrazin-3-yl]phenoxy]acetonitrile; for-mic acid]", "IC90": 150}, {"molecule": "COc1ccc(-c2cnc3c(Nc4ccc(C(=O)N5CCN(C(=O)N6CCO[C@@H](CN)C6)CC5)c(C)c4)nccn23)c(Cl)c1F", "note": "[Example 484, [4-[(2S)-2-(aminomethyl)morpholine-4-carbonyl]piperazin-1-yl]-[4-[[3-(2-chloro-3-fluoro-4-methoxyphenyl)imidazo[1,2-a]pyrazin-8-yl]amino]-2-methylphenyl]methanone; for-mic acid]", "IC90": 180}]}, {"test_system": "Acinetobacter baumannii ATCC17978", "test": "Antimicrobial susceptibility testing: 90% growth inhibitory concentration (IC90) determination, Iso-Sensitest broth", "assay_type": "cell-based", "details": "Acinetobacter baumannii, ATCC17978, 16 h, read-out: ATCC17978 IC90, 90% growth inhibitory concentration, Acinetobacter baumannii ATCC17978, Iso-Sensitest broth, OD 600 nm over 16 h", "in_short": "as §1", "units": {"IC90": "nM"}, "values": [{"molecule": "CCc1cc(Nc2nccn3c(-c4ccc(OS(C)(=O)=O)c(F)c4F)cnc23)ccc1C(=O)N1CCN(C(=O)[C@@H]2C[C@@H](O)CN2)CC1", "note": "[Example 454, [4-[8-[3-ethyl-4-[4-[(2S,4R)-4-hydroxypyrrolidine-2-carbonyl]piperazine-1-carbonyl]anilino]imidazo[1,2-a]pyrazin-3-yl]-2,3-difluorophenyl] methanesulfonate; formic acid]", "IC90": 4700}, {"molecule": "CC[C@@]1(O)CN[C@H](C(=O)N2CCN(C(=O)c3ccc(Nc4nccn5c(-c6ccc(OC)c(F)c6F)cnc45)cc3C)CC2)C1", "note": "[Example 456, [4-[[3-(2,3-difluoro-4-methoxyphenyl)imidazo[1,2-a]pyrazin-8-yl]amino]-2-methylphenyl]-[4-[(2S,4S)-4-ethyl-4-hydroxypyrrolidine-2-carbonyl]piperazin-1-yl]methanone; formic acid]", "IC90": 68}, {"molecule": "CCc1cc(Nc2nccn3c(-c4ccc(OCC#N)c(F)c4F)cnc23)ccc1C(=O)NCCNC(=O)[C@@H]1C[C@@H](O)CN1", "note": "[Example 457, (2S,4R)-N-[2-[[4-[[3-[4-(cyanomethoxy)-2,3-difluorophenyl]imidazo[1,2-a]pyrazin-8-yl]amino]-2-ethylbenzoyl]amino]ethyl]-4-hydroxypyrrolidine-2-carboxamide; formic acid]", "IC90": 80}, {"molecule": "COc1ccc(-c2cnc3c(Nc4ccc(C(=O)N5CCN(C(=O)[C@H]6CCNC6)CC5)c(C)c4)nccn23)c(F)c1F", "note": "[Example 460, [4-[[3-(2,3-difluoro-4-methoxyphenyl)imidazo[1,2-a]pyrazin-8-yl]amino]-2-methylphenyl]-[4-[(3S)-pyrrolidine-3-carbonyl]piperazin-1-yl]methanone; hydrochloride]", "IC90": 83}, {"molecule": "Cc1cc(Nc2nccn3c(-c4ccc(OC(F)F)cc4)cnc23)ccc1C(=O)N1CCN(C(=O)[C@@H]2C[C@](C)(O)CN2)CC1", "note": "[Example 462, [4-[[3-[4-(difluoromethoxy)phenyl]imi-dazo[1,2-a]pyrazin-8-yl]amino]-2-methylphenyl]-[4-[(2S,4S)-4-hydroxy-4-methylpyrrolidine-2-carbonyl]piperazin-1-yl]methanone; formic acid]", "IC90": 110}, {"molecule": "CC[C@]1(O)CN[C@H](C(=O)N2CCN(C(=O)c3ccc(Nc4nccn5c(-c6ccc(OC)c(F)c6F)cnc45)cc3C)CC2)C1", "note": "[Example 465, [4-[[3-(2,3-difluoro-4-methoxyphenyl)imidazo[1,2-a]pyrazin-8-yl]amino]-2-methylphenyl]-[4-[(2S,4R)-4-ethyl-4-hydroxypyrrolidine-2-carbonyl]piperazin-1-yl]methanone; formic acid]", "IC90": 170}, {"molecule": "Cc1cc(Nc2nccn3c(-c4ccc(OCC#N)c(F)c4Cl)cnc23)ccc1C(=O)N1CCC(C(=O)OC[C@@H]2CNCCN2)CC1", "note": "[Example 470, formic acid; [(2S)-piperazin-2-yl]methyl 1-[4-[[3-[2-chloro-4-(cyanomethoxy)-3-fluorophenyl]imidazo[1,2-a]pyrazin-8-yl]amino]-2-methylbenzoyl]piperidine-4-carboxylate]", "IC90": 92}, {"molecule": "Cc1cc(Nc2nccn3c(-c4ccc(OCC#N)c(F)c4F)cnc23)ccc1C(=O)N1CCC(C(=O)OC[C@@H]2CNCCN2)CC1", "note": "[Example 473, formic acid; [(2S)-piperazin-2-yl]methyl 1-[4-[[3-[4-(cyanomethoxy)-2,3-difluorophenyl]imidazo[1,2-a]pyrazin-8-yl]amino]-2-methylbenzoyl]piperidine-4-carboxylate]", "IC90": 300}, {"molecule": "COc1ccc(-c2cnc3c(Nc4ccc(C(=O)N5CCN(C(=O)[C@@H]6CCNC6)CC5)c(C)c4)nccn23)c(Cl)c1F", "note": "[Example 474, [4-[[3-(2-chloro-3-fluoro-4-methoxyphenyl)imidazo[1,2-a]pyrazin-8-yl]amino]-2-methylphenyl]-[4-[(3R)-pyrrolidine-3-carbonyl]piperazin-1-yl]methanone; formic acid]", "IC90": 94}, {"molecule": "COc1ccc(-c2cnc3c(Nc4ccc(C(=O)N5CCN(C(=O)NCCN)CC5)c(C)c4)nccn23)c(F)c1F", "note": "[Example 475, N-(2-aminoethyl)-4-[4-[[3-(2,3-difluoro-4-methoxyphenyl)imidazo[1,2-a]pyrazin-8-yl]amino]-2-methylbenzoyl]piperazine-1-carboxamide; formic acid]", "IC90": 97}, {"molecule": "COc1ccc(-c2cnc3c(Nc4ccc(C(=O)N5CCN(C(=O)[C@@H]6C[C@@H](O)CN6)CC5)c(C)c4)nccn23)c(Cl)c1F", "note": "[Example 476, [4-[[3-(2-chloro-3-fluoro-4-methoxyphenyl)imidazo[1,2-a]pyrazin-8-yl]amino]-2-methylphenyl]-[4-[(2S,4R)-4-hydroxypyrrolidine-2-carbonyl]piperazin-1-yl]methanone; formic acid]", "IC90": 100}, {"molecule": "COc1ccc(-c2cnc3c(Nc4ccc(C(=O)N5CCN(C(=O)C6(F)CCNCC6)CC5)c(C)c4)nccn23)c(F)c1F", "note": "[Example 477, [4-[[3-(2,3-difluoro-4-methoxyphenyl)imidazo[1,2-a]pyrazin-8-yl]amino]-2-methylphenyl]-[4-(4-fluoropiperidine-4-carbonyl)piperazin-1-yl]methanone; hydrochloride]", "IC90": 120}, {"molecule": "COc1ccc(-c2cnc3c(Nc4ccc(C(=O)N5CCN(C(=O)N[C@@H](C)CN)CC5)c(C)c4)nccn23)c(Cl)c1F", "note": "[Example 478, formic acid]", "IC90": 130}, {"molecule": "COc1ccc(-c2cnc3c(Nc4ccc(C(=O)N5CCN(C(=O)C6CCNCC6)CC5)c(C)c4)nccn23)c(Cl)c1F", "note": "[Example 479, [4-[[3-(2-chloro-3-fluoro-4-methoxyphenyl)imidazo[1,2-a]pyrazin-8-yl]amino]-2-methylphenyl]-[4-(piperidine-4-carbonyl)piperazin-1-yl]methanone; formic acid]", "IC90": 130}, {"molecule": "COc1ccc(-c2cnc3c(Nc4ccc(C(=O)N5CCN(C(=O)N6CCNCC6)CC5)c(C)c4)nccn23)c(F)c1F", "note": "[Example 480, [4-[[3-(2,3-difluoro-4-methoxyphenyl)imidazo[1,2-a]pyrazin-8-yl]amino]-2-methylphenyl]-[4-(piperazine-1-carbonyl)piperazin-1-yl]methanone; formic acid]", "IC90": 140}, {"molecule": "Cc1cc(Nc2nccn3c(-c4ccc(OC(F)F)cc4)cnc23)ccc1C(=O)N1CCN(C(=O)N[C@H](C)CN)CC1", "note": "[Example 482, N-[(2R)-1-aminopropan-2-yl]-4-[4-[[3-[4-(difluoromethoxy)phenyl]imi-dazo[1,2-a]pyrazin-8-yl]amino]-2-methylbenzoyl]piperazine-1-carboxamide; hydrochlroide]", "IC90": 170}, {"molecule": "COc1ccc(-c2cnc3c(Nc4ccc(C(=O)N5CCN(C(=O)[C@@H]6CCNC6)CC5)c(C)c4)nccn23)cc1F", "note": "[Example 483, [4-[[3-(3-fluoro-4-methoxyphenyl)imidazo[1,2-a]pyrazin-8-yl]amino]-2-methylphenyl]-[4-[(3R)-pyrrolidine-3-carbonyl]piperazin-1-yl]methanone; hydrochloride]", "IC90": 180}]}]}
